Measurements from patent US20220054617A1, “SUBUNIT VACCINE CONSTRUCTS FOR FLAVIVIRUSES” (priority 2018, published 2022).

Columns and labels:
albumin = settings: human, non-human primate, pig, rabbit, rat, mouse; cited from earlier work
TLR-7 = TLR-7 (Homo sapiens, UniProt Q9NYK1); settings: in vitro
TLR-8 = TLR-8 (Homo sapiens, UniProt Q9NR97); settings: in vitro
[1] = tested on: human whole blood or PBMCs

TLR-7, sequence (Q9NYK1 27-1049, species assumed): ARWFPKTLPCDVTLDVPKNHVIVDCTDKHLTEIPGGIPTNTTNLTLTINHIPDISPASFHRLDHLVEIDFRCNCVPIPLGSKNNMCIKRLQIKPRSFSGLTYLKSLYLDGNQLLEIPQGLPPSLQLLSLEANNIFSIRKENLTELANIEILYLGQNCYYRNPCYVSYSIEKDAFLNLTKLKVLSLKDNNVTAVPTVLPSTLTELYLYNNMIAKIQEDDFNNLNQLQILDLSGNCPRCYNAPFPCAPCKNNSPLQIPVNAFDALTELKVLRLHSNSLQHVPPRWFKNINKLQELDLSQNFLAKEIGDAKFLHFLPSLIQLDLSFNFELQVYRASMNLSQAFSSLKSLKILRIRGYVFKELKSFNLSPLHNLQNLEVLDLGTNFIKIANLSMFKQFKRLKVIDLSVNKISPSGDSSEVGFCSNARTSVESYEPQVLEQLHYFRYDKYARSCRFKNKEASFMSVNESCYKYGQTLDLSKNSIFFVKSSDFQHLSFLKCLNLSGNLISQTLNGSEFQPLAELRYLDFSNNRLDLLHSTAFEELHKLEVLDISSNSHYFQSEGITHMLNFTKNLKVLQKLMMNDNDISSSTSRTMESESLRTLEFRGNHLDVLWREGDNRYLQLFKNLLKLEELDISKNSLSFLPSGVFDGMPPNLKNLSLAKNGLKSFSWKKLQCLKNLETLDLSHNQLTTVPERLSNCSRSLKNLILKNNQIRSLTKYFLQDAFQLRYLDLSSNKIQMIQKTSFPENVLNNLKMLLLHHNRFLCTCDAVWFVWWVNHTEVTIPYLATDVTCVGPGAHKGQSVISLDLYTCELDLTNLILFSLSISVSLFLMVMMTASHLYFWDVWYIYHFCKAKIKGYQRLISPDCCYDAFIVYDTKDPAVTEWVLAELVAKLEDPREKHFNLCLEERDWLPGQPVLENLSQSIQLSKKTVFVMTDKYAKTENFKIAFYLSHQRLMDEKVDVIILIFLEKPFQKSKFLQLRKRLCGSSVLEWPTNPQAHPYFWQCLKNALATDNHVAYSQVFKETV
TLR-8, sequence (Q9NR97 27-1041): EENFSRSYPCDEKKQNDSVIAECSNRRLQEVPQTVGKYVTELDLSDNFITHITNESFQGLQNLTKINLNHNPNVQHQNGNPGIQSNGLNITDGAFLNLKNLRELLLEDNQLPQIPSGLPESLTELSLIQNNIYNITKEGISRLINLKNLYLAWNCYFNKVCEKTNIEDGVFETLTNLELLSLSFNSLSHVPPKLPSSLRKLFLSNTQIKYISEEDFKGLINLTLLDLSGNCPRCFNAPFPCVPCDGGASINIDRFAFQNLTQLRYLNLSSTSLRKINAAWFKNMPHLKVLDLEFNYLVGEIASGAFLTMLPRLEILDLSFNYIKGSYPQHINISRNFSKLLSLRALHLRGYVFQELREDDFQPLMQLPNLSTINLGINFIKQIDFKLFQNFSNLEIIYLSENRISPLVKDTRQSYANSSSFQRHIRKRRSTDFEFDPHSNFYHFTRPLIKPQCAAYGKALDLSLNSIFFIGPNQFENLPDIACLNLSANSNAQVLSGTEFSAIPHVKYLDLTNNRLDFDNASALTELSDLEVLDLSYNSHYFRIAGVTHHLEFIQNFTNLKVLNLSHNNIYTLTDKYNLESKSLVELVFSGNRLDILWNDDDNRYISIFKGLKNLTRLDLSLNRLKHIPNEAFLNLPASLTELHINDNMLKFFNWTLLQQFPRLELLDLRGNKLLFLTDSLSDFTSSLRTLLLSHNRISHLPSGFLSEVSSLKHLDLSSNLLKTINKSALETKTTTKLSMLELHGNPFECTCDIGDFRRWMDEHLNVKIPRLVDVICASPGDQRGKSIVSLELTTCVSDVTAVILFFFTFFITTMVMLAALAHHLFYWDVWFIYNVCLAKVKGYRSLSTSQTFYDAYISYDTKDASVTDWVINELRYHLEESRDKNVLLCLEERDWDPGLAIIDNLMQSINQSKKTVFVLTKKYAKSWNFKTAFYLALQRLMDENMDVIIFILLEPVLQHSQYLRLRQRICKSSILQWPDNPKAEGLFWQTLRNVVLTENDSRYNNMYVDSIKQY

SGP portion: portion of the Streptococcal G protein used as N-terminal tag, SEQ ID NO: 14 (LAEAKVLANRELDKYGVSDYYKNLINNAKTVEGVKALIDEILAALPK)
binding to albumin (albumin): good binding

covalent conjugate of an imidazoquinoline TLR7/TLR8 dual agonist [5-(3-(aminomethyl)benzyl)-3-pentylquinolin-2-amine] with hyaluronic acid [EY-4-143]
activity in TLR-7 primary assay (TLR-7): inactive | activity in TLR-8 primary assay (TLR-8): inactive | cytokine induction [1]: silent | adjuvant effect (ZIKV; in vivo): potent adjuvant | elicitation of neutralizing antibodies after the first boost (ZIKV; with the ZIKV antigen, several candidate adjuvants examined, preliminary screens): consistently elicit neutralizing antibodies after the first boost
